Format in all cases: cell-based
For one experiment, the target named is T1, Estrogen receptor (Homo sapiens, UniProt P03372).
T1 sequence (P03372 whole entry): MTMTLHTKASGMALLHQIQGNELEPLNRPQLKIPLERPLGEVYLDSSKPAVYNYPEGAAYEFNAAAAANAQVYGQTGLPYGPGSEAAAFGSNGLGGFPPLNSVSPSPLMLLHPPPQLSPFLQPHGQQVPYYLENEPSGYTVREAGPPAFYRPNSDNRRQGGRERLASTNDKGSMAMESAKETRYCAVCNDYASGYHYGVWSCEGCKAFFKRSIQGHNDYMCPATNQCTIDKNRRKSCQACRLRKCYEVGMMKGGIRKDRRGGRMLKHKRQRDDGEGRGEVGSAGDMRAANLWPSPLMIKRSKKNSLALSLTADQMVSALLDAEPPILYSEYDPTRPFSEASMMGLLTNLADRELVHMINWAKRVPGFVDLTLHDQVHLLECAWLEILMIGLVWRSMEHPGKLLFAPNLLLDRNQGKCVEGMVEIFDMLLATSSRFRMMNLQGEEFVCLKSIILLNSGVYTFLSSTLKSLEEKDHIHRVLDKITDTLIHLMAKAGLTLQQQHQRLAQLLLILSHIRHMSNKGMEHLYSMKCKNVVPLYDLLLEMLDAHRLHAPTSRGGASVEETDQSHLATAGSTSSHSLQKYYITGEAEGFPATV
The experiment can be described thus: Inhibition of ERalpha in human T47D cells by ERE-driven luciferase reporter gene assay based target engagement assay. A general note: Reporter assays use an easily measured gene product as a stand-in for the process of interest.

Experiment [1] deals with T2, Protein cereblon/Estrogen receptor (Homo sapiens, UniProt P03372+Q96SW2). The experiment in a line: Protac activity at cereblon/ERalpha in human MCF7 cells assessed as induction of ERalpha protein degradation by Western blot analysis. Background: A western blot detects proteins with antibodies after separation by electrophoresis.
Target sequence in this assay (Q96SW2 whole entry, one chain of several): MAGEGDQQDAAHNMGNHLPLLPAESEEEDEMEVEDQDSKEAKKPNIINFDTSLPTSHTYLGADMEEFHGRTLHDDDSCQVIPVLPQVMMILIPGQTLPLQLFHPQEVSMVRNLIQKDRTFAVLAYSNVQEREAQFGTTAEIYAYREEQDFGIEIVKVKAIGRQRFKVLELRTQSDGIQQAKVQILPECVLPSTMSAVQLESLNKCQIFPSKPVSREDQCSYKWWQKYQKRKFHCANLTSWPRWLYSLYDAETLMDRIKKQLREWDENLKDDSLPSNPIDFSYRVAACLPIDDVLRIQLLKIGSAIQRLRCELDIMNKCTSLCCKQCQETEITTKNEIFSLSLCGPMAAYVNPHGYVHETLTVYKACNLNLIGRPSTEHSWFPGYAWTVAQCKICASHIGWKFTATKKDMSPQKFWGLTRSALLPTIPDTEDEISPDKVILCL
The target in experiment [2] is T2, Protein cereblon/Estrogen receptor. The experiment can be described thus: Protac activity at cereblon/ERalpha in human MCF7 cells assessed as induction of ERalpha protein degradation by Western blot analysis relative to control.
Target sequence in this assay (Q96SW2 whole entry, looked up, one chain of several): as the sequence (Q96SW2 whole entry, one chain of several) above

pIC50: −log10 of the molar value.

In the case of `COc1cc(N2CCN(CCCCCOc3ccc([C@@H]4c5ccc(O)cc5CC[C@@H]4c4ccccc4)cc3)CC2)cc2c1C(=O)N([C@H]1CCC(=O)NC1=O)C2`, the pIC50 (as a rule, −log10 of the IC50, conventionally taken in molar units) on Estrogen receptor is 9.31. For the same molecule, the 50% degradation concentration (DC50) (as a rule, the midpoint of the concentration-degradation curve) in experiment [1] is under 1000 pM. For the same molecule, the maximal response (Emax) (commonly the greatest response seen or fitted, relative to the assay's reference) in experiment [2] was over 75%.

On Estrogen receptor, `COc1cc(N2CCN(CC(=O)C3CC(Oc4ccc([C@@H]5c6ccc(O)cc6CC[C@@H]5c5ccccc5)cc4)C3)CC2)cc2c1C(=O)N(C1CCC(=O)NC1=O)C2` (some centres undefined) showed a pIC50 of 9.15. For the same molecule, the 50% degradation concentration (DC50) in experiment [1] is under 1000 pM. Further, the Emax in experiment [2] was over 75%.

For `COc1cc(N2CCN(CCCCCOc3ccc([C@@H]4c5ccc(O)cc5CC[C@@H]4c4ccccc4)cc3)CC2)cc2c1C(=O)N(C1CCC(=O)NC1=O)C2` (some centres undefined), on Estrogen receptor, the pIC50 is 9.10. In addition, the DC50 in experiment [1] is 1000 to 10000 pM. Moreover, the maximal response (Emax) in experiment [2] was over 75%.

As for `COc1cc(N2CCN(CCCCCOc3ccc([C@@H]4c5ccc(O)cc5CC[C@@H]4c4ccccc4)cc3)CC2)cc2c1C(=O)N([C@@H]1CCC(=O)NC1=O)C2`, the negative-log IC50 (pIC50) against Estrogen receptor was 9.43. For the same molecule, the DC50 in experiment [1] is under 1000 pM. In experiment [2], the maximal response (Emax) is over 75%.

Molecule `COc1cc(N2CCN(CCC3(O)CC(Oc4ccc([C@@H]5c6ccc(O)cc6CC[C@@H]5c5ccccc5)cc4)C3)CC2)cc2c1C(=O)N(C1CCC(=O)NC1=O)C2` (some centres undefined) gave a pIC50 against Estrogen receptor of 9.52. In addition, the DC50 in experiment [1] is under 1000 pM. Besides, the Emax in experiment [2] was over 75%.

For the molecule `COc1cc(N2CCN(C3CC4CC(Oc5ccc([C@@H]6c7ccc(O)cc7CC[C@@H]6c6ccc(F)cc6)cc5)CC4C3)CC2)cc2c1C(=O)N(C1CCC(=O)NC1=O)C2` (some centres undefined), the negative logarithm of the IC50 (pIC50) on Estrogen receptor is 9.09. In addition, the DC50 in experiment [1] was under 1000 pM. In experiment [2], the Emax was 50 to 75%.

Molecule `O=C1CCC(N2Cc3cc(N4CCN(CCC5(O)CC(Oc6ccc([C@@H]7c8ccc(O)cc8CC[C@@H]7c7ccccc7)cc6)C5)CC4)cc(OC(F)F)c3C2=O)C(=O)N1` (some centres undefined) gave a pIC50 against Estrogen receptor of 9.30. The DC50 in experiment [1] is under 1000 pM. The Emax in experiment [2] was in the range of 50 to 75%.

In turn, `COc1cc(N2CCN(CCC3CCN(c4ccc([C@@H]5c6ccc(O)cc6CC[C@@H]5c5ccccc5)cc4F)CC3)CC2)cc2c1C(=O)N(C1CCC(=O)NC1=O)C2` (some centres undefined) gave a pIC50 against Estrogen receptor of 9.15. Further, the DC50 in experiment [1] was in the range of 1000 to 10000 pM. In experiment [2], the Emax was over 75%.
